{"source": "patent US20090048334A1", "about": "“Sodium ascorbate solubilisate” (priority 2004, published 2009)", "origin": "cited, not measured here", "conditions": "for content of the agent in an aqueous solution: over an extended period of time"}
{"smiles": "O=C1O[C@H]([C@@H](O)CO)C(O)=C1O", "note": "[ascorbic acid]", "values": [{"measurement": "added ascorbic acid present", "setting": "aqueous ascorbic acid solution, after 30 days", "value": "approximately 70%"}]}
{"smiles": "CCCCCCCCCCCCCCCC(=O)OC[C@H](O)[C@H]1OC(=O)C(O)=C1O", "note": "[ascorbylpalmitate]", "values": [{"measurement": "content of the agent in an aqueous solution", "value": "remains constant"}]}
{"smiles": "O=C1O[C@H]([C@@H](O)CO)C([O-])=C1OP(=O)([O-])[O-].[Na+].[Na+].[Na+]", "note": "[sodium ascorbic phosphate]", "values": [{"measurement": "content of the agent in an aqueous solution", "value": "remains constant"}]}
